Activity calls are given as the source filed them. The rule behind the calls is not given here. Where a SMILES comes first, the peptide text is derived from it.
Test: Inhibition of HIV1 Tat/TAR interaction at 1 to 400 uM by FRET based competition assay

N=C(N)NCCC[C@H](N)C(=O)N[C@@H](CCCCN)C(=O)N[C@@H](CCCCN)C(=O)O (H-Arg-Lys-Lys-OH)
inhibition: Active

N=C(N)NCCC[C@H](N)C(=O)NCCN(CC(=O)N[C@@H](CCCCN)C(=O)O)C(=O)[C@H](CCCCNC(=O)OCc1ccccc1)NC(=O)OCc1ccccc1
inhibition: Active

C[C@H](NC(=O)CN(CCNC(=O)[C@@H](N)CCCCN)C(=O)[C@H](C)NC(=O)OCc1ccccc1)C(=O)O
inhibition: Active

N=C(N)NCCC[C@H](NC(=O)[C@@H](N)CCCNC(=N)N)C(=O)N[C@@H](CCCCN)C(=O)O (H-Arg-Arg-Lys-OH)
inhibition: Active

N=C(N)NCCC[C@H](NC(=O)[C@@H](N)Cc1ccccc1)C(=O)N[C@@H](Cc1ccccc1)C(=O)O (H-Phe-Arg-Phe-OH)
inhibition: Active

C[C@H](N)C(=O)NCCN(CC(=O)N[C@@H](CCCCN)C(=O)O)C(=O)[C@H](CCCCNC(=O)OCc1ccccc1)NC(=O)OCc1ccccc1
inhibition: Active

C[C@H](NC(=O)CN(CCNC(=O)[C@@H](N)Cc1ccccc1)C(=O)[C@H](C)NC(=O)OCc1ccccc1)C(=O)O
inhibition: Active

N=C(N)NCCC[C@H](NC(=O)CN(CCNC(=O)[C@@H](N)CCCCN)C(=O)[C@H](CCCN(C(=N)NC(=O)OCc1ccccc1)C(=O)OCc1ccccc1)NC(=O)OCc1ccccc1)C(=O)O
inhibition: Active

N=C(N)NCCC[C@H](N)C(=O)N[C@@H](Cc1ccccc1)C(=O)N[C@@H](CCCCN)C(=O)O (H-Arg-Phe-Lys-OH)
inhibition: Active

C[C@H](NC(=O)[C@H](Cc1ccccc1)NC(=O)[C@@H](N)CCCCN)C(=O)O (H-Lys-Phe-Ala-OH)
inhibition: Active

NCCCC[C@H](NC(=O)[C@H](Cc1ccccc1)NC(=O)[C@@H](N)Cc1ccccc1)C(=O)O (H-Phe-Phe-Lys-OH)
inhibition: Active

N=C(N)NCCC[C@H](N)C(=O)NCCN(CC(=O)N[C@@H](Cc1ccccc1)C(=O)O)C(=O)[C@H](Cc1ccccc1)NC(=O)OCc1ccccc1
inhibition: Active

C[C@H](N)C(=O)NCCN(CC(=O)N[C@@H](Cc1ccccc1)C(=O)O)C(=O)[C@H](Cc1ccccc1)NC(=O)OCc1ccccc1
inhibition: Active

C[C@H](NC(=O)[C@@H](N)Cc1ccccc1)C(=O)N[C@@H](Cc1ccccc1)C(=O)O (H-Phe-Ala-Phe-OH)
inhibition: Active

C[C@H](NC(=O)[C@@H](N)CCCNC(=N)N)C(=O)N[C@@H](CCCCN)C(=O)O (H-Arg-Ala-Lys-OH)
inhibition: Active

NCCCC[C@H](N)C(=O)NCCN(CC(=O)N[C@@H](Cc1ccccc1)C(=O)O)C(=O)[C@H](Cc1ccccc1)NC(=O)OCc1ccccc1
inhibition: Active

N[C@@H](Cc1ccccc1)C(=O)N[C@@H](Cc1ccccc1)C(=O)N[C@@H](Cc1ccccc1)C(=O)O (H-Phe-Phe-Phe-OH)
inhibition: Active

NCCCC[C@H](NC(=O)[C@@H](N)Cc1ccccc1)C(=O)N[C@@H](Cc1ccccc1)C(=O)O (H-Phe-Lys-Phe-OH)
inhibition: Active

N[C@@H](Cc1ccccc1)C(=O)NCCN(CC(=O)N[C@@H](Cc1ccccc1)C(=O)O)C(=O)[C@H](Cc1ccccc1)NC(=O)OCc1ccccc1
inhibition: Active

NCCCC[C@H](NC(=O)CN(CCNC(=O)[C@@H](N)Cc1ccccc1)C(=O)[C@H](CCCCNC(=O)OCc1ccccc1)NC(=O)OCc1ccccc1)C(=O)O
inhibition: Active

C[C@H](NC(=O)CN(CCNC(=O)[C@@H](N)CCCNC(=N)N)C(=O)[C@H](C)NC(=O)OCc1ccccc1)C(=O)O
inhibition: Active

C[C@H](NC(=O)[C@H](C)NC(=O)[C@@H](N)CCCCN)C(=O)O (H-Lys-Ala-Ala-OH)
inhibition: Active

N=C(N)NCCC[C@H](NC(=O)[C@@H](N)Cc1ccccc1)C(=O)N[C@@H](CCCCN)C(=O)O (H-Phe-Arg-Lys-OH)
inhibition: Active

C[C@H](N)C(=O)NCCN(CC(=O)N[C@@H](CCCNC(=N)N)C(=O)O)C(=O)[C@H](CCCN(C(=N)NC(=O)OCc1ccccc1)C(=O)OCc1ccccc1)NC(=O)OCc1ccccc1
inhibition: Active

C[C@H](NC(=O)[C@H](CCCCN)NC(=O)[C@@H](N)CCCCN)C(=O)O (H-Lys-Lys-Ala-OH)
inhibition: Active

NCCCC[C@H](NC(=O)[C@H](CCCCN)NC(=O)[C@@H](N)Cc1ccccc1)C(=O)O (H-Phe-Lys-Lys-OH)
inhibition: Active

N=C(N)NCCC[C@H](NC(=O)[C@H](CCCNC(=N)N)NC(=O)[C@@H](N)CCCNC(=N)N)C(=O)O (H-Arg-Arg-Arg-OH)
inhibition: Active

N=C(N)NCCC[C@H](NC(=O)[C@H](CCCCN)NC(=O)[C@@H](N)CCCNC(=N)N)C(=O)O (H-Arg-Lys-Arg-OH)
inhibition: Active

N=C(N)NCCC[C@H](NC(=O)CN(CCNC(=O)[C@@H](N)Cc1ccccc1)C(=O)[C@H](CCCN(C(=N)NC(=O)OCc1ccccc1)C(=O)OCc1ccccc1)NC(=O)OCc1ccccc1)C(=O)O
inhibition: Active

NCCCC[C@H](NC(=O)CN(CCNC(=O)[C@@H](N)CCCCN)C(=O)[C@H](CCCCNC(=O)OCc1ccccc1)NC(=O)OCc1ccccc1)C(=O)O
inhibition: Active

N=C(N)NCCC[C@H](NC(=O)CN(CCNC(=O)[C@@H](N)CCCNC(=N)N)C(=O)[C@H](CCCN(C(=N)NC(=O)OCc1ccccc1)C(=O)OCc1ccccc1)NC(=O)OCc1ccccc1)C(=O)O
inhibition: Active

C[C@H](N)C(=O)NCCN(CC(=O)N[C@@H](C)C(=O)O)C(=O)[C@H](C)NC(=O)OCc1ccccc1
inhibition: Active

N=C(N)NCCC[C@H](NC(=O)[C@H](Cc1ccccc1)NC(=O)[C@@H](N)CCCNC(=N)N)C(=O)O (H-Arg-Phe-Arg-OH)
inhibition: Active
